Results reported in US20070003585A1, “Topical skin treating compositions” (STIEFEL LABORATORIES, INC., priority 2005, published 2007).
Like-named read-outs stand apart in the source and are kept apart here.

How the values were obtained:
[1] = Storage stability of composition containing 2.15% of benzoyl peroxide, […] of tazarotene, and […] of clindamycin (Example 8); type: physicochemical; settings: Example 8 composition, initial […], 6 months
[2] = Storage stability of composition containing 2.02% of benzoyl peroxide, […] of tazarotene, and […] of clindamycin (Example 9); type: physicochemical; settings: Example 9 composition, initial […]
[3] = Storage stability of composition containing 0.209% of tazarotene and 2.13% of clindamycin (Example 14); type: physicochemical; settings: Example 14 composition, initial 0.209%
[4] = Storage stability of composition containing […] of tazarotene and […] of clindamycin (Example 16); type: physicochemical; settings: Example 16 composition, initial […], 6 months
[5] = Storage stability of composition containing 2.02% of benzoyl peroxide and 0.099% of tazarotene (Example 17); type: physicochemical; settings: Example 17 composition, initial […]
From the text: (§1) The results are as follows:

[6] = Storage stability of composition containing 5.18% of benzoyl peroxide and 0.099% of tazarotene (Example 18); type: physicochemical; settings: Example 18 composition, initial […]
From the text: as §1

[7] = Example 6 composition, initial […]
[8] = Example 7 composition, initial […]
[9] = Example 11 composition, initial […]
[10] = Example 12 composition, initial […]
[11] = Example 13 composition, initial […]
[12] = Example 15 composition, initial 0.109%

- Tazarotene (as % w/w) ([1]; 6° C.): 0.099 % w/w
- Tazarotene (as % w/w) ([1]; 25° C.): 0.097 % w/w
- Tazarotene (as % w/w) ([1]; 30° C.): 0.079 % w/w
- Tazarotene (as % w/w) ([1]; 40° C.): 0.057 % w/w
- Tazarotene (as % w/w) ([2]; 6 months, 6° C.): 0.104 % w/w
- Tazarotene (as % w/w) ([2]; 6 months, 25° C.): 0.089 % w/w
- Tazarotene (as % w/w) ([2]; 6 months, 30° C.): 0.089 % w/w
- Tazarotene (as % w/w) ([2]; 6 months, 40° C.): 0.003 % w/w
- Tazarotene (as % w/w) ([2]; 90 days, 6° C.): 0.103 % w/w
- Tazarotene (as % w/w) ([2]; 90 days, 25° C.): 0.092 % w/w
- Tazarotene (as % w/w) ([2]; 90 days, 30° C.): 0.090 % w/w
- Tazarotene (as % w/w) ([2]; 90 days, 40° C.): 0.071 % w/w
- Tazarotene (as % w/w) ([3]; 4 weeks, 25° C.): 0.208 % w/w
- Tazarotene (as % w/w) ([3]; 4 weeks, 30° C.): 0.208 % w/w
- Tazarotene (as % w/w) ([3]; 4 weeks, 40° C.): 0.205 % w/w
- Tazarotene (as % w/w) ([3]; 6 months, 25° C.): 0.206 % w/w
- Tazarotene (as % w/w) ([3]; 6 months, 30° C.): 0.206 % w/w
- Tazarotene (as % w/w) ([3]; 6 months, 40° C.): 0.205 % w/w
- Tazarotene (as % w/w) ([3]; 90 days, 25° C.): 0.204 % w/w
- Tazarotene (as % w/w) ([3]; 90 days, 30° C.): 0.208 % w/w
- Tazarotene (as % w/w) ([3]; 90 days, 40° C.): 0.208 % w/w
- Tazarotene (as % w/w) ([4]; 6° C.): 0.101 % w/w
- Tazarotene (as % w/w) ([4]; 25° C.): 0.102 % w/w
- Tazarotene (as % w/w) ([4]; 30° C.): 0.104 % w/w
- Tazarotene (as % w/w) ([4]; 40° C.): 0.103 % w/w
- Tazarotene (as % w/w) ([5]; 6 months, 6° C.): 0.108 % w/w
- Tazarotene (as % w/w) ([5]; 6 months, 25° C.): 0.081 % w/w
- Tazarotene (as % w/w) ([5]; 6 months, 30° C.): 0.070 % w/w
- Tazarotene (as % w/w) ([5]; 6 months, 40° C.): 0.009 % w/w
- Tazarotene (as % w/w) ([5]; 90 days, 6° C.): 0.106 % w/w
- Tazarotene (as % w/w) ([5]; 90 days, 25° C.): 0.088 % w/w
- Tazarotene (as % w/w) ([5]; 90 days, 30° C.): 0.085 % w/w
- Tazarotene (as % w/w) ([5]; 90 days, 40° C.): 0.044 % w/w
- Tazarotene (as % w/w) ([6]; 6 months, 6° C.): 0.106 % w/w
- Tazarotene (as % w/w) ([6]; 6 months, 25° C.): 0.088 % w/w
- Tazarotene (as % w/w) ([6]; 6 months, 30° C.): 0.083 % w/w
- Tazarotene (as % w/w) ([6]; 6 months, 40° C.): 0.004 % w/w
- Tazarotene (as % w/w) ([6]; 90 days, 6° C.): 0.103 % w/w
- Tazarotene (as % w/w) ([6]; 90 days, 25° C.): 0.093 % w/w
- Tazarotene (as % w/w) ([6]; 90 days, 30° C.): 0.087 % w/w
- Tazarotene (as % w/w) ([6]; 90 days, 40° C.): 0.051 % w/w
- Tazarotene (as % w/w) ([7]; 2 weeks, 25° C.): 0.088 % w/w
- Tazarotene (as % w/w) ([7]; 2 weeks, 30° C.): 0.085 % w/w
- Tazarotene (as % w/w) ([7]; 2 weeks, 40° C.): 0.081 % w/w
- Tazarotene (as % w/w) ([7]; 90 days, 6° C.): 0.094 % w/w
- Tazarotene (as % w/w) ([7]; 90 days, 25° C.): 0.090 % w/w
- Tazarotene (as % w/w) ([7]; 90 days, 30° C.): 0.085 % w/w
- Tazarotene (as % w/w) ([7]; 90 days, 40° C.): 0.078 % w/w
- Tazarotene (as % w/w) ([8]; 2 weeks, 6° C.): 0.104 % w/w
- Tazarotene (as % w/w) ([8]; 2 weeks, 25° C.): 0.098 % w/w
- Tazarotene (as % w/w) ([8]; 2 weeks, 30° C.): 0.088 % w/w
- Tazarotene (as % w/w) ([8]; 2 weeks, 40° C.): 0.080 % w/w
- Tazarotene (as % w/w) ([8]; 6 months, 6° C.): 0.106 % w/w
- Tazarotene (as % w/w) ([8]; 6 months, 25° C.): 0.090 % w/w
- Tazarotene (as % w/w) ([8]; 6 months, 30° C.): 0.082 % w/w
- Tazarotene (as % w/w) ([8]; 6 months, 40° C.): 0.046 % w/w
- Tazarotene (as % w/w) ([9]; 2 weeks, 6° C.): 0.106 % w/w
- Tazarotene (as % w/w) ([9]; 2 weeks, 25° C.): 0.098 % w/w
- Tazarotene (as % w/w) ([9]; 2 weeks, 40° C.): 0.089 % w/w
- Tazarotene (as % w/w) ([9]; 6 months, 6° C.): 0.107 % w/w
- Tazarotene (as % w/w) ([9]; 6 months, 25° C.): 0.093 % w/w
- Tazarotene (as % w/w) ([9]; 6 months, 40° C.): 0.014 % w/w
- Tazarotene (as % w/w) ([9]; 30 days, 6° C.): 0.105 % w/w
- Tazarotene (as % w/w) ([9]; 30 days, 25° C.): 0.094 % w/w
- Tazarotene (as % w/w) ([9]; 30 days, 40° C.): 0.084 % w/w
- Tazarotene (as % w/w) ([9]; 90 days, 6° C.): 0.106 % w/w
- Tazarotene (as % w/w) ([9]; 90 days, 25° C.): 0.093 % w/w
- Tazarotene (as % w/w) ([9]; 90 days, 40° C.): 0.086 % w/w
- Tazarotene (as % w/w) ([10]; 2 weeks, 6° C.): 0.099 % w/w
- Tazarotene (as % w/w) ([10]; 2 weeks, 25° C.): 0.090 % w/w
- Tazarotene (as % w/w) ([10]; 2 weeks, 30° C.): 0.090 % w/w
- Tazarotene (as % w/w) ([10]; 2 weeks, 40° C.): 0.085 % w/w
- Tazarotene (as % w/w) ([10]; 6 months, 6° C.): 0.096 % w/w
- Tazarotene (as % w/w) ([10]; 6 months, 25° C.): 0.091 % w/w
- Tazarotene (as % w/w) ([10]; 6 months, 30° C.): 0.088 % w/w
- Tazarotene (as % w/w) ([10]; 6 months, 40° C.): None Detected
- Tazarotene (as % w/w) ([10]; 90 days, 6° C.): 0.102 % w/w
- Tazarotene (as % w/w) ([10]; 90 days, 25° C.): 0.090 % w/w
- Tazarotene (as % w/w) ([10]; 90 days, 30° C.): 0.089 % w/w
- Tazarotene (as % w/w) ([10]; 90 days, 40° C.): 0.081 % w/w
- Tazarotene (as % w/w) ([11]; 2 weeks, first temperature column (head not given; 6° C. by analogy)): 0.097 % w/w
- Tazarotene (as % w/w) ([11]; 2 weeks, fourth temperature column (head not given; 40° C. by analogy)): 0.081 % w/w
- Tazarotene (as % w/w) ([11]; 2 weeks, second temperature column (head not given; 25° C. by analogy)): 0.089 % w/w
- Tazarotene (as % w/w) ([11]; 2 weeks, third temperature column (head not given; 30° C. by analogy)): 0.086 % w/w
- Tazarotene (as % w/w) ([11]; 6 months, first temperature column (head not given; 6° C. by analogy)): 0.098 % w/w
- Tazarotene (as % w/w) ([11]; 6 months, fourth temperature column (head not given; 40° C. by analogy)): None Detected
- Tazarotene (as % w/w) ([11]; 6 months, second temperature column (head not given; 25° C. by analogy)): 0.085 % w/w
- Tazarotene (as % w/w) ([11]; 6 months, third temperature column (head not given; 30° C. by analogy)): 0.085 % w/w
- Tazarotene (as % w/w) ([11]; 90 days, first temperature column (head not given; 6° C. by analogy)): 0.100 % w/w
- Tazarotene (as % w/w) ([11]; 90 days, fourth temperature column (head not given; 40° C. by analogy)): 0.079 % w/w
- Tazarotene (as % w/w) ([11]; 90 days, second temperature column (head not given; 25° C. by analogy)): 0.090 % w/w
- Tazarotene (as % w/w) ([11]; 90 days, third temperature column (head not given; 30° C. by analogy)): 0.087 % w/w
- Tazarotene (as % w/w) ([12]; 60 days, 6° C.): 0.11 % w/w
- Tazarotene (as % w/w) ([12]; 60 days, 25° C.): 0.109 % w/w
- Tazarotene (as % w/w) ([12]; 60 days, 30° C.): 0.105 % w/w
- Tazarotene (as % w/w) ([12]; 60 days, 40° C.): 0.107 % w/w
- Tazarotene (as % w/w) ([12]; 90 days, 6° C.): 0.107 % w/w
- Tazarotene (as % w/w) ([12]; 90 days, 25° C.): 0.111 % w/w
- Tazarotene (as % w/w) ([12]; 90 days, 30° C.): 0.108 % w/w
- Tazarotene (as % w/w) ([12]; 90 days, 40° C.): 0.116 % w/w
SMILES: CCOC(=O)c1ccc(C#Cc2ccc3c(c2)C(C)(C)CCS3)nc1 [Tazarotene]
